One data set relates to vertebral artery. The experiment in a line: vascular resistance of the vertebral artery in anesthetized dogs (ED30). The settings on record: Canis lupus familiaris, intravenous injection. In kind it is in vivo, dog. The procedure:
The pharmacological effect (ED30) of the compounds of the present invention with respect to the vascular resistance of the vertebral artery in anesthetized dogs was treated by the following procedure.
Adult dogs of either sex (7-14 kg in body weight) were anesthetized with at first thiopental sodium (35 mg/kg, intraperitoneal), anesthetized with urethane (400 mg/kg, intravenous) and chloralose (60 mg/kg, intravenous) and kept under artificial respiration throughout the experiment. After thoracotomy at the left first intercostal space, the vertebral artery was exposed and blood flow was measured with intracorporeal flow probe connected to an electromagnetic flowmeter (MF-27, Nihon Kohden).
At the same time, continuous measurement of the following parameters was made: systemic blood pressure (mean pressure) at the right femoral artery, the limb lead II ECG, the heart rate with a tachometer triggered by the R wave of ECG, and the vascular resistance determined by loading a electronic divider unit (EO-601 G, Nihon Kohden) with the mean values of blood pressure and vertebral artery blood flow. All of these parameters were recorded simultaneously on a polygraph (RM-600, Nihon Kohden).
All the test compounds were injected through a cannula inserted into the femoral vein.
The ED30 (μg/kg) values obtained by intravenous injection are listed in Table 4, wherein the Compound Numbers are keyed to the Example Numbers.

Data set [1] deals with isolated guinea pig hearts (coronary artery). The experiment in a line: coronary vascular dilative effect in isolated guinea pig hearts (Langendorff's method). Also noted: species or system guinea pig (Heartley). The settings on record: 37° C., 0.1 ml administered into the coronary artery. The method, then:
The coronary vascular dilative effect of 3N-substituted 3,4-dihydropyrimidine derivatives was tested.
Heartley guinea pigs (weight 400-500 g) were killed by a blow on the head and their hearts were immediately isolated. The hearts were perfused with Krebs-Henseleit solution bubbled with a mixture of 95% O2 +5% CO2 and maintained at 37° C. at a constant rate of 6 ml/minute according to the Langendorff's method [J. Pharmacol. Methods 2, 143 (1979)]. The perfusion pressure was measured by a pressure transducer continuously. Samples were prepared by emulsifying 1 mg of a test compound in 1 ml of a mixture of dimethylsulfoxide and physiological saline solution (1:9) and diluting with physiological saline solution to the predetermined concentration. 0.1 ml of the diluted solution was administered into the coronary artery via a rubber tube connected to an aorta cannula to obtain ED50 (μg/heart) data as shown in Table 3. The numbers of the compounds in the Table correspond respectively to those of the working examples described above.

Data set [2] can be described thus: acute toxicity (LD50), Litchfield-Wilcoxon method. Further details: species or system mouse (male ddY). The settings on record: mouse, in vivo, emulsion in 10% dimethyl sulfoxide. The procedure: The acute toxicity (LD50) data of compound No. 28 of the present invention as administered to two groups of 5 or 6-week old male ddY mice were obtained by the Litchfield-Wilcoxon method. One group of mice was fasted overnight prior to oral administration. To each group of mice, the test compound was administered in the form of emulsion in 10% dimethyl sulfoxide.

In data set [3] the test system is conscious spontaneously hypertensive rats (SHR). Briefly: hypotensive action in conscious spontaneously hypertensive rats (SHR). In kind it is in vivo, rat (SHR). The settings on record: 10 mg/kg orally. The method, then: A selected compound of the present invention was tested for its hypotensive action in conscious spontaneously hypertensive rats (SHR).
A group of 17 to 20-week old male SHR were anesthetized with ether and a cannula was inserted into the left femoral artery. At least one day after the operation, the cannula was connected to a pressure transducer and the blood pressure was measured continuously under conscious and unrestrained condition, thereby obtaining the data shown in Table 6. The test compound as clear solution dissolved in 10% ethanol was administered orally at a dose of 10 mg/kg (body weight) to each animal fasted overnight.

Where two headings read alike, the source gives them in different places.

Data on 10 compounds can be found in patent US4772602A, “N-substituted 3,4-dihydropyrimidine derivatives as agents for treating disorders of cardiovascular system” (Suntory Limited, priority 1985, dated 1988).

In the case of `CCOC(=O)C1=C(C)N=C(C)N(C(=O)OCCN(C)Cc2ccccc2)C1c1ccccc1[N+](=O)[O-]` (stereo not drawn) [Compound 3], in the data set on vertebral artery, the ED30 worked out at 0.00075 mg/kg. The “ED50 (coronary vascular dilative effect)” value in data set [1] came out at 0.0095 μg/heart.

In the data set with vertebral artery, `CC1=NC(C)=C(C(=O)OCC2CC2)C(c2ccccc2[N+](=O)[O-])N1C(=O)OCCN(C)Cc1ccc([N+](=O)[O-])cc1` (stereo not drawn) [Compound 7] returned an ED30 of 0.00071 mg/kg. Moreover, the “ED50 (coronary vascular dilative effect)” value in data set [1] is on record as 0.0012 μg/heart.

Regarding `COc1ccc(CN(C)CCOC(=O)N2C(C)=NC(C)=C(C(=O)OCC3CC3)C2c2ccccc2[N+](=O)[O-])cc1` (stereo not drawn) [Compound 5], the ED30 in the data set on vertebral artery was found to be 0.0024 mg/kg. For the same compound, the “ED50 (coronary vascular dilative effect)” value in data set [1] was 0.036 μg/heart.

`CC1=NC(C)=C(C(=O)OCC2CC2)C(c2ccccc2[N+](=O)[O-])N1C(=O)OCCCCCN(C)Cc1ccccc1` (stereo not drawn) [Compound 9] yielded an ED30 in the data set on vertebral artery of 0.0039 mg/kg. Besides, the “ED50 (coronary vascular dilative effect)” value in data set [1] was found to be 0.10 μg/heart.

In turn, `CC1=NC(C)=C(C(=O)OCC2CC2)C(c2ccccc2[N+](=O)[O-])N1C(=O)OCCN(C)Cc1ccc(F)cc1` (stereo not drawn) [Compound 11] returned an ED30 with vertebral artery of 0.00055 mg/kg. Besides, the “ED50 (coronary vascular dilative effect)” value in data set [1] came out at 0.030 μg/heart.

The LD50 is the dose at which mortality reaches 50%. As to `CC1=NC(C)=C(C(=O)OCC2CC2)C(c2ccccc2[N+](=O)[O-])N1C(=O)OCCN(CCCc1ccccc1)Cc1ccccc1` (stereo not drawn) [Compound 28, 3-[2-{N-benzyl-N-(3-phenylpropyl)amino}ethoxycarbonyl]-5-cyclopropylmethoxycarbonyl-2,6-dimethyl-4-(2-nitrophenyl)-3,4-dihydropyrimidine], in the data set with vertebral artery, the ED30 is 0.0042 mg/kg. The median lethal dose (LD50) was more than 1000 mg/kg in data set [2] (male ddY mice fasted overnight, oral, read-out: LD50 oral) and 180 to 200 mg/kg in data set [2] (male ddY mice, intravenous, read-out: LD50 intravenous). Besides, the “time of maximum blood pressure decrease” value in data set [3] amounted to 2 h. Also, in data set [3] (6 hours), the “Blood pressure decrease, 6 hours” value is 10-20%. Moreover, the “Blood pressure decrease, maximum decrease” value in data set [3] (in 2 hrs) is 35%.

Turning to `CC1=NC(C)=C(C(=O)OCC2CC2)C(c2ccccc2[N+](=O)[O-])N1C(=O)OCCN(C)Cc1ccccc1Cl` (stereo not drawn) [Compound 6], the ED30 in the data set on vertebral artery is 0.0014 mg/kg. For the same compound, the “ED50 (coronary vascular dilative effect)” value in data set [1] turned out to be 0.0092 μg/heart.

For `CC1=NC(C)=C(C(=O)OCC2CC2)C(c2ccccc2[N+](=O)[O-])N1C(=O)OCCN(C)Cc1ccccc1` (stereo not drawn) [Compound 1, 3-{2-(N-benzyl-N-methylamino)ethoxycarbonyl}-5-cyclopropylmethoxycarbonyl-2,6-dimethyl-4-(2-nitrophenyl)-3,4-dihydropyrimidine], the ED30 in the data set with vertebral artery was found to be 0.00058 mg/kg. For the same compound, the “ED50 (coronary vascular dilative effect)” value in data set [1] worked out at 0.013 μg/heart.

On to `CC1=NC(C)=C(C(=O)OC(C)C)C(c2ccccc2[N+](=O)[O-])N1C(=O)OCCN(C)Cc1ccccc1` (stereo not drawn) [Compound 10], for which the ED30 with vertebral artery was 0.00054 mg/kg. Further, the “ED50 (coronary vascular dilative effect)” value in data set [1] came to 0.060 μg/heart.

Consider `CC1=NC(C)=C(C(=O)OCC2CC2)C(c2ccccc2[N+](=O)[O-])N1C(=O)OCCN1CCc2ccccc2C1` (stereo not drawn) [Compound 21], for which the ED30 in the data set on vertebral artery was found to be 0.002 mg/kg. Also, in data set [1], the “ED50 (coronary vascular dilative effect)” value is on record as 0.45 μg/heart.
